Reference: US20260083750A1, “SMALL MOLECULE INHIBITORS OF KRAS PROTEINS” (MERCK SHARP & DOHME LLC, priority 2022, published 2026)

Columns and labels:
[1] = test system: PANC08.13 cells (homozygous KRAS-G12D activating mutation); assay: Cellular phospho-ERK assay in G12D cell line; format: cell-based; conditions: Homo sapiens, PANC-08-13, 2 hours compound incubation, ratio of p-ERK vs. total ERK, read-out: PANC 0813 pERK IC50
In short: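 Cells (10,000-15,000/well) were seeded overnight, then treated for 2 h at 37 °C with a 10-point 1:3 titration from 30 μM final. Lysates were assayed by AlphaLISA SureFire Ultra multiplex, with the p-ERK/total-ERK ratio as read-out; IC50 came from a 4-parameter logistic fit.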

KRAS-G13D = molecular target: T1, KRAS-G13D (Homo sapiens, UniProt P01116, G13D); assay: SOS-catalyzed nucleotide exchange assay (Procedure A, TR-FRET); format: biochemical; conditions: 60 min preincubation, GTP, read-out: KRAS G13D GNE IC50
T1 construct: N-terminal biotin-acceptor peptide […]
In short: (§1)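 Preformed biotinylated RAS–Bodipy-GDP/Tb-streptavidin complex preincubated with compound 60 min at room temperature, then SOS plus GTP (3 mM final) added. Exchange times: G13D 30 min, G12C/D 60 min, G12V 90 min. Final RAS/SOS: G12C 3 nM/40 nM, G12D 1 nM/40 nM, G12V 1.25 nM/160 nM, G13D 1.25 nM/0 nM. TR-FRET 520/495 ratio, four-parameter fit.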

KRAS-G12D = molecular target: T2, KRAS-G12D (Homo sapiens, UniProt P01116, G12D); assay: as above; format: biochemical; conditions: 60 min preincubation, SOS + GTP, read-out: KRAS G12D GNE IC50
T2 construct: N-terminal biotin-acceptor peptide […]
In short: as §1

[2] = molecular target: T3, KRAS-G12C (C51S/C80L/C118S) (Homo sapiens, UniProt P01116, C118S/C51S/C80L/G12C); assay: as above; format: biochemical; conditions: 60 min preincubation, SOS + GTP, read-out: KRAS G12C GNE IC50
T3 construct: N-terminal biotin-acceptor peptide […]
In short: as §1

KRAS-G12V = molecular target: T4, KRAS-G12V (Homo sapiens, UniProt P01116, G12V); assay: as above; format: biochemical; conditions: 60 min preincubation, SOS + GTP, read-out: KRAS G12V GNE IC50
T4 construct: N-terminal biotin-acceptor peptide […]
In short: as §1

HRAS = HRAS (Homo sapiens, UniProt P01112); assay: as above; format: biochemical; conditions: 60 min preincubation, SOS + GTP, read-out: HRAS GNE IC50
In short: (§2)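 Biotinylated WT-sequence HRAS or NRAS (1.25 nM final) loaded with Bodipy-GDP plus Tb-streptavidin, preincubated 60 min with compound (10-point, 3-fold). Exchange started with human SOS (40 nM) and 3 mM GTP, 60 min at room temperature, pH 7.5 Mg buffer. TR-FRET 520/495 ratio normalised to DMSO and saturating inhibitor, four-parameter fit.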

NRAS = NRAS (Homo sapiens, UniProt P01111); assay: as above; format: biochemical; conditions: 60 min preincubation, SOS + GTP, read-out: NRAS GNE IC50
In short: as §2

[3] = test system: SW620 cells (homozygous KRAS-G12V activating mutation); assay: Cellular phospho-ERK assay in G12V cell line; format: cell-based; conditions: Homo sapiens, SW-620, 2 hours compound incubation, ratio of p-ERK vs. total ERK, read-out: SW620 pERK IC50
Description: Procedure for Cellular Phospho-ERK Assay in G12D and G12V Cell Lines
PANC08.13 cells (ATCC® CRL-2551™), containing homozygous KRAS-G12D activating mutation, were cultured in growth medium made of RPMI1640-GlutaMAX™—I (ThermoFisher Scientific 61870) containing 15% heat inactivated fetal bovine serum (ThermoFisher Scientific 10091148)). SW620 cells (ATCC® […]), containing homozygous KRAS-G12V activating mutation, were cultured in growth medium that contains RPMI 1640-GlutaMAX™—I (ThermoFisher Scientific 61870) containing 10% heat inactivated fetal bovine serum (ThermoFisher Scientific 10091148).
Cells for the assay were harvested in growth medium after TrypLE (ThermoFisher scientific 12604021) digestion and were seeded in a 384-well collagen coated cell culture plate (Corning 356702) at a density of 10,000-15,000 cells/20 uL/well, and incubated at 37° C., 5% CO2 overnight. The compound (with 10 mM stock concentration) dose-response titrations were prepared [30 μM final ERK detection assay concentration and 1:3 dilutions, 10-point dose response] and appropriate amounts (270 nL) of test compounds were dispensed in a 384-well intermediate plate using an Echo 550 liquid handler. 30 uL/well of RPMI medium 1640-GlutaMAX™—I was added to the intermediate plate and the contents of the intermediate plate (10 uL/well) were then transferred to the 384-well collagen coated cell culture plate, which was incubated at 37° C., 5% CO2 for 2 hours. After removal of medium from the collagen coated cell culture plate, cells were lysed in lysis buffer from Alpha SureFire® Ultra™ Multiplex p-ERK and total ERK assay kit (PerkinElmer MPSU-PTERK) containing Halt™ Protease and Phosphatase inhibitor cocktail (ThermoFisher Scientific 78446) at room temperature with constant shaking at 300 rpm for 30 minutes. The cell lysates were then transferred to an OptiPlate-384 plate (PerkinElmer 6005620), and the phosphorylation of ERK (p-ERK) and total ERK levels were detected by Alpha SureFire® Ultra™ Multiplex p-EEK kit and total ERK assay kit (PerkinElmer MPSU-PTERK) following the manufacturer's protocol. Assay plates were read on a EnVision Multimode Plate Reader (PerkinElmer), and the ratio of p-ERK vs. total ERK in each well was used as the final readout. Dose response curves were analyzed using a 4-parameter logistic model to calculate IC50 values using Spotfire software.

T2 sequence (P01116 with tags, fused parts or gaps isoform P01116-2 G12D): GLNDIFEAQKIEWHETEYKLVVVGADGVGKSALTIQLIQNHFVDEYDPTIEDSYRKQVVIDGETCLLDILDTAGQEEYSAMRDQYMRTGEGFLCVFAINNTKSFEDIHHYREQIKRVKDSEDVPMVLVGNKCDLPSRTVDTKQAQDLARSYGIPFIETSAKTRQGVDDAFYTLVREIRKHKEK
T3 sequence (P01116 with tags, fused parts or gaps isoform P01116-2 G12C/C51S/C80L/C118S): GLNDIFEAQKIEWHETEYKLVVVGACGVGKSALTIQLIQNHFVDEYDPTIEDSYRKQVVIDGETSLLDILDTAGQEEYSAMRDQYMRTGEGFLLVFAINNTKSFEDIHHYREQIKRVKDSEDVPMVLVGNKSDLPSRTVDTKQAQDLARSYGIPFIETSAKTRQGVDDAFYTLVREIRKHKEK
T4 sequence (P01116 with tags, fused parts or gaps isoform P01116-2 G12V): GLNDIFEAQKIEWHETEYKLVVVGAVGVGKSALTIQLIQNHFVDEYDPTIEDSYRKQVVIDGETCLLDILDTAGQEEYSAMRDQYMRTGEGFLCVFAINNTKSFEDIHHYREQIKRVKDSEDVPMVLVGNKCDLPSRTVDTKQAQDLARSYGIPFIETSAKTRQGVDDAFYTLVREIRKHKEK
NRAS, sequence (P01111 with tags, fused parts or gaps): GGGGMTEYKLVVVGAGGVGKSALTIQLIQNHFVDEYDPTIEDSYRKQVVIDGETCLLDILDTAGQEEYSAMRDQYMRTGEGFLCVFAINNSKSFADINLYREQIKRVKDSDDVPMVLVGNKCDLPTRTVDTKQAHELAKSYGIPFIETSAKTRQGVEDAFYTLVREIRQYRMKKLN
HRAS, sequence (P01112 with tags, fused parts or gaps): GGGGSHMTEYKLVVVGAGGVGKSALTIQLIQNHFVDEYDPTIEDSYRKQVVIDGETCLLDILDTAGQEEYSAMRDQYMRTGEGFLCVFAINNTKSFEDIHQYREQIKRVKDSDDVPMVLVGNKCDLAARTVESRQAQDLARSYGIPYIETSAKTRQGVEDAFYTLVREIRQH
T1 sequence (P01116 with tags, fused parts or gaps isoform P01116-2 G13D): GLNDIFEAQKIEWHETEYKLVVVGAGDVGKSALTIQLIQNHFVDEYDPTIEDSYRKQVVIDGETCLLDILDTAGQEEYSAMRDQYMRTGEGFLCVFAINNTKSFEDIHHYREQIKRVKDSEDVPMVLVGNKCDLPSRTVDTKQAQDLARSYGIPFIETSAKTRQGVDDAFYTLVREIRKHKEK

SMILES | IC50 [1] [nM] | IC50 (KRAS-G13D) [nM] | IC50 (KRAS-G12D) [nM] | IC50 [2] [nM] | IC50 (KRAS-G12V) [nM] | IC50 (HRAS) [nM] | IC50 (NRAS) [nM] | IC50 [3] [nM]
C[C@@H]1CCOCCN1c1nc(OC[C@@]23CCCN2C[C@H](F)C3)nc2c(F)c(-c3ccc(F)c4sc(N)c(C#N)c34)c(Cl)cc12 [compound 7, 2-amino-4-(6-chloro-8-fluoro-2-(((2R,7aS)-2-fluorotetrahydro-1H-pyrrolizin-7a(5H)-yl)methoxy)-4-((R)-5-methyl-1,4-oxazepan-4-yl)quinazolin-7-yl)-7-fluorobenzo[b]thio-phene-3-carbonitrile] | 192 | 8.55 | 9.18 | 13.1 | 6 | > 11100 | > 11100 | 67.4
CC1COCCN(c2nc(OC[C@@]34CCCN3C[C@H](F)C4)nc3c(F)c(-c4ccc(F)c5sc(N)c(C#N)c45)c(Cl)cc23)C1 (stereo partly drawn) [compound 8, 2-amino-4-(6-chloro-8-fluoro-2-(((2R,7aS)-2-fluorotetrahydro-1H-pyrrolizin-7a(5H)-yl)methoxy)-4-(6-methyl-1,4-oxazepan-4-yl)quinazolin-7-yl)-7-fluorobenzo[b]thio-phene-3-carbonitrile] | 138 | 12.8 | 9.92 | 20.8 | 7.59 | > 11100 | > 11100 | 104
CC1CN(c2nc(OC[C@@]34CCCN3C[C@H](F)C4)nc3c(F)c(-c4ccc(F)c5sc(N)c(C#N)c45)c(Cl)cc23)CCCO1 (stereo partly drawn) [compound 9, 2-amino-4-(6-chloro-8-fluoro-2-(((2R,7aS)-2-fluorotetrahydro-1H-pyrrolizin-7a(5H)-yl)methoxy)-4-(2-methyl-1,4-oxazepan-4-yl)quinazolin-7-yl)-7-fluorobenzo[b]thio-phene-3-carbonitrile] | 155 | 8.74 | 24.4 | 23.1 | 6.17 | > 11100 | > 11100 | 101
CC1CCN(c2nc(OC[C@@]34CCCN3C[C@H](F)C4)nc3c(F)c(-c4ccc(F)c5sc(N)c(C#N)c45)c(Cl)cc23)CCO1 (stereo partly drawn) [compound 10, 2-amino-4-(6-chloro-8-fluoro-2-(((2R,7aS)-2-fluorotetrahydro-1H-pyrrolizin-7a(5H)-yl)methoxy)-4-(7-methyl-1,4-oxazepan-4-yl)quinazolin-7-yl)-7-fluorobenzo[b]thio-phene-3-carbonitrile] | 2600 | 110 | 700 | 47.3 | 41.7 | > 11100 | > 11100 | 538
N#Cc1c(N)sc2c(F)ccc(-c3c(Cl)cc4c(N5CCOCC(F)C5)nc(OC[C@@]56CCCN5C[C@H](F)C6)nc4c3F)c12 (stereo partly drawn) [compound 11, 2-amino-4-(6-chloro-8-fluoro-4-(6-fluoro-1,4-oxazepan-4-yl)-2-(((2R,7aS)-2-fluorotetrahydro-1H-pyrrolizin-7a(5H)-yl)methoxy)quinazo-lin-7-yl)-7-fluorobenzo[b]thio-phene-3-carbonitrile] | 39.9 | 6.85 | 8.27 | 18.2 | 6.4 | > 11100 | > 11100 | 21.9
N#Cc1c(N)sc2c(F)ccc(-c3c(Cl)cc4c(N5CCOCC(F)(F)C5)nc(OC[C@@]56CCCN5C[C@H](F)C6)nc4c3F)c12 [compound 12, 2-amino-4-(6-chloro-4-(6,6-difluoro-1,4-oxazepan-4-yl)-8-fluoro-2-(((2R,7aS)-2-fluorotetrahydro-1H-pyrrolizin-7a(5H)-yl)methoxy)quinazo-lin-7-yl)-7-fluorobenzo[b]thio-phene-3-carbonitrile] | 75.4 | 12.9 | 34.2 | 19.5 | 11.6 | > 11100 | > 11100 | 32.9
CC1(F)COCCN(c2nc(OC[C@@]34CCCN3C[C@H](F)C4)nc3c(F)c(-c4ccc(F)c5sc(N)c(C#N)c45)c(Cl)cc23)C1 (stereo partly drawn) [compound 13, 2-amino-4-(6-chloro-8-fluoro-4-(6-fluoro-6-methyl-1,4-oxazepan-4-yl)-2-(((2R,7aS)-2-fluorotetrahydro-1H-pyrrolizin-7a(5H)-yl)methoxy)quinazo-lin-7-yl)-7-fluorobenzo[b]thio-phene-3-carbonitrile] | 208 | 21.9 | 46.7 | 32.2 | 10.4 | > 11100 | > 11100 | 152
CC(C)(C)NC[C@@]1(COc2nc(N3CCCOCC3)c3cc(Cl)c(-c4ccc(F)c5sc(N)c(C#N)c45)c(F)c3n2)CC1(F)F [compound 25, 2-amino-4-(2-(((R)-1-((tert-butylamino)methyl)-2,2-difluorocyclopropyl)methoxy)-6-chloro-8-fluoro-4-(1,4-oxazepan-4-yl)quinazolin-7-yl)-7-fluorobenzo[b]thiophene-3-carbonitrile] | 1310 | 52.9 | 247 | 28.6 | 17.7 | > 11100 | > 11100 | 407
CC(C)NC[C@@]1(COc2nc(N3CCCOCC3)c3cc(Cl)c(-c4ccc(F)c5sc(N)c(C#N)c45)c(F)c3n2)CC1(F)F [compound 26, 2-amino-4-(6-chloro-2-(((R)-2,2-difluoro-1-((isopropylamino)meth-yl)cyclopropyl)meth-oxy)-8-fluoro-4-(1,4-oxazepan-4-yl)quinazolin-7-yl)-7-fluorobenzo[b]thiophene-3-carbonitrile] | 992 | 59.4 | 177 | 54.9 | 22.6 | > 11100 | > 11100 | 357
CC1(NC[C@@]2(COc3nc(N4CCCOCC4)c4cc(Cl)c(-c5ccc(F)c6sc(N)c(C#N)c56)c(F)c4n3)CC2(F)F)CCC1 [compound 28, 2-amino-4-(6-chloro-2-(((R)-2,2-difluoro-1-(((1-methylcyclobutyl)ami-no)methyl)cyclopropyl)methoxy)-8-fluoro-4-(1,4-oxazepan-4-yl)quinazolin-7-yl)-7-fluorobenzo[b]thiophene-3-carbonitrile] | 2420 | 255 | 1850 | 78.2 | 99.5 | > 11100 | > 11100 | 867
